Assay: Free radical inhibiting activity in vitro (DPPH)
Assay type: biochemical
Details: 50 µM DPPH in ethanol, 30 minutes, room temperature, decrease in OD, solvent control subtracted
Experimental: A 50 µM solution of 1,1-diphenyl-2-picrylhydrazyl (DPPH) in ethanol is added for 30 minutes at room temperature to a tested sample. The drop in absorbance is then measured and the results are given as the percentage decrease in OD caused by the test compound relative to the solvent used. The tested products are dissolved in ethanol (except product according to Example 7 when DMSO was used); the results (solvent control subtracted) are given as % free radical inhibiting activity as described in table 2.

Row | Compound | Free radical inhibiting activity (dissolved in ethanol) | Free radical inhibiting activity (dissolved in DMSO)
1 | COc1cc(C=CC(=O)Oc2cc(O)c3c(=O)c(OC(=O)C=Cc4ccc(OCC=C(C)C)c(OC)c4)c(-c4ccc(OC(=O)C=Cc5ccc(OCC=C(C)C)c(OC)c5)c(OC(=O)C=Cc5ccc(OCC=C(C)C)c(OC)c5)c4)oc3c2)ccc1OCC=C(C)C [Example 8, 3-(O-prenylferuloyloxy)-2-(3,4-bis-(O-prenylferuloyloxy)phenyl)-7-(O-prenyl-feruloyloxy)-5-hydroxy-chromen-4-one] | 75% | –
2 | 1,3-bis-butyryloxy-11a-hydroxy-9-(3,5,7-tributyryloxy-4H-1-benzopyran-4-on-2-yl)-5a-(3,4-bisbutyryloxyphenyl)-5,6,11-hexahydro-5,6,11-trioxanaphtacene-12-one [Example 7] | – | 95%
3 | O=c1c(O)c(-c2ccc(O)c(O)c2)oc2cc(O)cc(O)c12 [Quercetin] | 62% | –
4 | CC(=O)Oc1ccccc1C(=O)Oc1cc(O)c2c(=O)c(OC(=O)c3ccccc3OC(C)=O)c(-c3ccc(OC(=O)c4ccccc4OC(C)=O)c(OC(=O)c4ccccc4OC(C)=O)c3)oc2c1 [Example 3, 3,7-bis-(2-acetylsalicyloyloxy)-2-(3,4-bis-(2-acetylsalicyloyloxy)phenyl)-5-hydroxy-chromen-4-one] | 82% | –

— patent publication EP2468741A1, “Novel quercetin derivatives, their preparation, pharmaceutical compositions containing them and their use” (Bel/Novamann International s.r.o., priority 2010, dated 2012)
